Assay results taken from US9833425B2, “Gentisic acid is used to improve systemic hemodynamics, hepatic mitochondrial function and lactate acidemia in patients with septic shock” (priority 2015, dated 2017).
“Also recorded” adds a separate entry of the source.

Tests used:
[1] = test system: hepatic mitochondria; test: Oxygen consumption rates of hepatic mitochondria harvested after in vivo treatment (Seahorse XF24); design: species or system dog; details: treated septic dogs; for coupled respiration (OCR after ADP) of hepatic mitochondria: ADP 4 mM; for maximal (uncoupled) respiration (OCR after FCCP) of hepatic mitochondria: FCCP 4 uM
Description: After completion of the in-vivo measurements, we administered sodium pentobarbital (110 mg/kg) to euthanize the animal. In a subset of animals of each group, we immediately harvested a piece of liver and isolated the mitochondria as described by Schnaitman and Greenawalt (23). Briefly, we minced the extracted liver in mitochondrial isolation buffer (MSHE) that includes 70 mM sucrose, 210 mM mannitol, 5 mM HEPES, 1 mM EGTA, and fatty acid free bovine serum albumin (BSA). We then disrupted the tissue using a drill-driven glass/Teflon dounce homogenizer. We centrifuged the homogenate three times, after which we re-suspended the final pellet in a minimal volume of MSHE+BSA and determined protein (mg/ml). We diluted the mitochondrial preparation in cold mitochondrial assay solution (MAS) that contained 70 mM sucrose, 220 mM mannitol, 10 mM KH2PO4, 5 mM MgCl2, 2 mM HEPES, 1 mM EGTA, and BSA for plating directly onto the custom Seahorse 24-well culture dish (˜20 ug mitochondrial protein/50 ul per well; see further below). After centrifugation of the plate and addition of appropriate substrates, we viewed the mitochondria under a microscope to ensure consistent adherence to the well. We then transferred the plate to the XF24 Analyzer for initiation of the protocol as described below (17).
To examine mitochondrial function in this model, we used a novel new technology that is capable of measuring dynamic changes in mitochondrial function, not easily attainable by other technologies (17). The Seahorse® XF24 extracellular flux analyser (Seahorse Bioscience, MA, USA) refines the technology by which mitochondrial oxygen consumption can be measured. This technology uses a piston to reversibly enclose a small volume (7 ul) above the mitochondria that can monitor oxygen uptake in that volume for 2-5 min, then raises the piston, allowing the bulk incubation medium (˜1 ml) to re-equilibrate. The ability to make up to 4 additions during the experiment allows mitochondrial respiration to be measured under various metabolic conditions. This piece of equipment has never been used to measure mitochondrial function in SS.
In this protocol, we sequentially measured mitochondrial function under various metabolic conditions (17). To obtain basal OCR, we first added a substrate to the preparation that contained pyruvate (10 mM) and malate (2 mM). We then added ADP (adenosine-diphosphate; 4 mM) that allows ATP synthase to function, producing an increase in OCR (coupled OCR) that is termed “state3ADP”. When the ATP/ADP ratio approaches equilibrium, pmf rises, after which proton reentry through the synthase stops and respiration slows. We terminated coupled respiration (i.e. state3ADP) by the addition of the ATP synthase inhibitor oligomycin (2.0 uM) in which we achieved “stateoligomycin” where ATP recycling cannot contribute and there is a stable decrease in OCR. We then added the protonophore, FCCP (4 uM; carbonyl cyanide p-trifluoromethoxy-phenylhydrazone). FCCP leads to uncoupled respiration in which we previously titrated the concentration of FCCP to yield a maximal effect. In mitochondria in which ATP synthase activity is a limiting factor, uncoupled respiration may be greater than coupled respiration. […] We finally added rotenone (R; 2 uM) and antimycin A (AA; 2 uM) which are inhibitors of the electron transport chain (ETC) complexes, I and III, respectively. When added to the mitochondrial preparation, these inhibitors produce a marked decline in mitochondrial respiration since the electron transport chain is inhibited.
With each treatment group, we obtained measurements of basal OCR, coupled OCR (i.e. state3ADP), and maximal OCR. In addition, we calculated coupled and uncoupled respiratory control ratios from state3ADP/stateoligomycin and uncoupled respiration/state FCCP/stateoligomycin, respectively. […]

[2] = test system: mitochondrial complex IV (cytochrome c oxidase); test: Enzymatic activity of hepatic mitochondrial complex IV; type: biochemical, dog; details: hepatic mitochondria of treated septic dogs; mean ± SD
Source text: As part of our assessment of mitochondrial function, we also measured the enzymatic activity of hepatic mitochondrial complex IV based on the rationale of Levy et al (10), since these investigators considered that dysfunction of complex IV was the most important determinant of abnormal mitochondrial function in SS. We determined complex IV activity spectrophotometrically by a temperature-controlled Ultrospec™ 2100 ultraviolet-visible spectrophotometer (Biopharmacia Biotech, Uppsala, Sweden) (17). Complex IV activity was measured at 25° C. by monitoring the absorbance decrease of reduced cytochrome c at 550 nm.

[3] = pH in unbuffered solution; type: physicochemical
[4] = listed as gentisic, sodium salt

SMILES | coupled respiration (OCR after ADP) of hepatic mitochondria [1] | maximal (uncoupled) respiration (OCR after FCCP) of hepatic mitochondria [1] | enzymatic activity of mitochondrial complex IV [2] [umol/min/mg protein] | pH in unbuffered solution [3] | coupled respiration (OCR after ADP) of hepatic mitochondria [1, 4] | coupled respiration (OCR after ADP) of hepatic mitochondria ([1]; sodium salt) | augmented respiratory capacity (uncoupled minus coupled respiration) [1, 4] | basal respiration (basal OCR) of hepatic mitochondria ([1]; pyruvate and malate substrate)
O=C(O)c1cc(O)c(O)c(O)c1 [gallic acid, 3,4,5 trihydroxybenzoic acid] | not different from values found in the non-septic control group | restored the reduction in maximal respiration | 2.44±0.63 | 4.2 | – | – | – | –
O=C([O-])c1cc(O)ccc1O.[Na+] [GSS, 2,5-dihydroxybenzoic acid sodium salt] | – | increase maximal OCR | 3.68±0.59 | 8.2 | significantly greater than the other groups; also recorded: large increase in coupled respiration | greater response to ADP as compared to the other groups | lowest; also recorded: reduction in augmented respiratory capacity | restoring basal respiration to the non-septic control value
